Patent US9550792B2, “Polycyclic substituted pyrazole kinase activity inhibitors and use thereof” (priority 2013, dated 2017)
Like-named read-outs stand apart in the source and are kept apart here.

Key:
Format in all cases: biochemical
CDK2/cyclin A = CDK2/cyclin A (Homo sapiens, UniProt P24941); assay: Kinase IC50, 33P labeled isotope method
CDK5/p35 = CDK5/p35 (Homo sapiens, UniProt Q00535); assay: Kinase IC50, 33P labeled isotope method
JNK1 = JNK1 (Homo sapiens, UniProt P45983); assay: Kinase IC50, 33P labeled isotope method
FGFR1 = FGFR1 (Homo sapiens, UniProt P11362); assay: Kinase IC50, 33P labeled isotope method
JNK2 = JNK2 (Homo sapiens, UniProt P45984); assay: Kinase IC50, 33P labeled isotope method
CDK1/cyclin B = CDK1/cyclin B (Homo sapiens, UniProt P06493); assay: Kinase IC50, 33P labeled isotope method
FGFR3 = FGFR3 (Homo sapiens, UniProt P22607); assay: Kinase IC50, 33P labeled isotope method; details: 20 μM ATP
CDK2/A = target: T1, CDK2/A (Homo sapiens, UniProt P24941); assay: Inhibitory activity to CDK2 (FRET); details: read-out: CDK2 inhibition % (1 × 10^−6 mol/L)
T1 construct: purchased
Summary of the method: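 FRET-based kinase assay using CDK2/cyclin A with peptide substrate in HEPES pH 7.5 buffer (MgCl2, BRIJ-35, EDTA). The kinase reaction ran 1 h, followed by development reagent for 1 h and a stop step. Inhibition calculated relative to phospho-peptide (100%) and ATP-free (0%) phosphorylation controls.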

CDK3/cyclin E = CDK3/cyclin E (Homo sapiens, UniProt Q00526); assay: Kinase IC50, 33P labeled isotope method
CDK1/cyclin E = CDK1/cyclin E (Homo sapiens, UniProt P06493); assay: Kinase IC50, 33P labeled isotope method
CDK1/cyclin A = CDK1/cyclin A (Homo sapiens, UniProt P06493); assay: Kinase IC50, 33P labeled isotope method
ERK7/MAPK15 = target: T2, ERK7/MAPK15 (Homo sapiens, UniProt Q8TD08); assay: Kinase IC50, 33P labeled isotope method
T2 sequence (Q8TD08 13-304 limits assumed): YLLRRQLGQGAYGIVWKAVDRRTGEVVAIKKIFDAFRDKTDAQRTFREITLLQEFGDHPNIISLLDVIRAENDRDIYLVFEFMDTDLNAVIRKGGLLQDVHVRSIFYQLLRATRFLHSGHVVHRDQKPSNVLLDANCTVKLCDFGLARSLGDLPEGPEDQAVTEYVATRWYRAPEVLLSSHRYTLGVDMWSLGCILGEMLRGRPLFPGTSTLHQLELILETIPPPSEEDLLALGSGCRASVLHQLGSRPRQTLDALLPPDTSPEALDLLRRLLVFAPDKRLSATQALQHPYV

FGFR2 = FGFR2 (Homo sapiens, UniProt P21802); assay: Kinase IC50, 33P labeled isotope method
CDK7/cyclin H = CDK7/cyclin H (Homo sapiens, UniProt P50613); assay: Kinase IC50, 33P labeled isotope method
CDK2/Cyclin A1 = CDK2/Cyclin A1 (Homo sapiens, UniProt P24941); assay: Kinase IC50, 33P labeled isotope method
Aurora A = target: T3, Aurora A (Homo sapiens, UniProt O14965); assay: Inhibitory activity to Aurora A (FRET); details: read-out: Aurora A inhibition % (1 × 10^−6 mol/L)
T3 construct: purchased
T3 sequence (O14965 1-403): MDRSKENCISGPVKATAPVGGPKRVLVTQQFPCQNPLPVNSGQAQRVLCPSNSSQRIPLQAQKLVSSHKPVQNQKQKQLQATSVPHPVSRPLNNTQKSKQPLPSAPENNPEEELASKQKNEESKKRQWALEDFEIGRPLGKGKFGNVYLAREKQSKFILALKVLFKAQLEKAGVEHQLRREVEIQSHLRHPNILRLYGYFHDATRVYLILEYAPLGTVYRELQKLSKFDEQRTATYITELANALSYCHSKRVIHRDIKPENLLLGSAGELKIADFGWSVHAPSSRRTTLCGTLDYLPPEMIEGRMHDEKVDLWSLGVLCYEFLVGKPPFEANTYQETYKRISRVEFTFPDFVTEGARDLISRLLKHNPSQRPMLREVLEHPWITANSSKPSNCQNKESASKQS
Summary of the method: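 FRET kinase assay of Aurora A with peptide substrate in HEPES pH 7.5, BRIJ-35, MgCl2, EDTA; 1 h reaction, then 1 h development before stop. Ex 400 nm, emission 445 nm (coumarin) and 520 nm (fluorescein); 0% and 100% phosphorylation controls set inhibition scale.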

JAK2 = JAK2 (Homo sapiens, UniProt O60674); assay: Kinase IC50, 33P labeled isotope method
FLT1/VEGFR1 = target: T4, FLT1/VEGFR1 (Homo sapiens, UniProt P17948); assay: Kinase IC50, 33P labeled isotope method
T4 sequence (P17948 827-1158 limits assumed): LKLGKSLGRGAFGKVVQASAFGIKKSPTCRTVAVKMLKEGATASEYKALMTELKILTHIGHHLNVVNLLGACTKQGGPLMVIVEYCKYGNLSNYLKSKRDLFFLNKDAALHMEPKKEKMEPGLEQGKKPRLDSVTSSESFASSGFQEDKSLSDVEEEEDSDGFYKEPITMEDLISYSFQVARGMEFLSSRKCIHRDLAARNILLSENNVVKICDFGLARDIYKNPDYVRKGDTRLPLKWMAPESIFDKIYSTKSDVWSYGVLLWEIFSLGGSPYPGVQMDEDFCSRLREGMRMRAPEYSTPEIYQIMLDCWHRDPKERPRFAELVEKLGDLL

KDR/VEGFR2 = KDR/VEGFR2 (Homo sapiens, UniProt P35968); assay: Kinase IC50, 33P labeled isotope method
CDK4/cyclin D1 = CDK4/cyclin D1 (Homo sapiens, UniProt P11802); assay: Kinase IC50, 33P labeled isotope method
[1] = 20 μM ATP, read-out: IC50* CDK5/p35
[2] = 20 μM ATP, read-out: IC50* JNK1
[3] = 20 μM ATP, read-out: IC50* FGFR1
[4] = 20 μM ATP, read-out: IC50* JNK2
[5] = 20 μM ATP, read-out: IC50* CDK1/cyclin B
[6] = 20 μM ATP, read-out: IC50* CDK1/cyclin E
[7] = 20 μM ATP, read-out: IC50* FGFR2
[8] = 20 μM ATP, read-out: IC50* CDK7/cyclin H
[9] = 20 μM ATP, read-out: IC50* JAK2
[10] = 20 μM ATP, read-out: IC50* CDK2/cyclin A
[11] = 20 μM ATP, read-out: IC50* CDK3/cyclin E
[12] = 20 μM ATP, read-out: IC50* CDK1/cyclin A
[13] = 20 μM ATP, read-out: IC50* ERK7/MAPK15
[14] = 20 μM ATP, read-out: IC50* CDK2/Cyclin A1
[15] = 20 μM ATP, read-out: IC50* FLT1/VEGFR1
[16] = 20 μM ATP, read-out: IC50* KDR/VEGFR2
[17] = 20 μM ATP, read-out: IC50* CDK4/cyclin D1

Chain of FGFR3 (P22607 472-761 limits assumed): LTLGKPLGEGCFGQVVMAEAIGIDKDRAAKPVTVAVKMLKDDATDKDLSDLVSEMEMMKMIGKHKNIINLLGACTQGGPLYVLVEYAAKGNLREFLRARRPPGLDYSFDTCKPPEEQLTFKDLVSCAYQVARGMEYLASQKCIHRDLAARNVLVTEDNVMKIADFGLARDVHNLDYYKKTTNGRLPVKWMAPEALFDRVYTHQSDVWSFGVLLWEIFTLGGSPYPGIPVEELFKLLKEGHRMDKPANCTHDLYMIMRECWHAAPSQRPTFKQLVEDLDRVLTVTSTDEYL
Chain of KDR/VEGFR2 (P35968 834-1162 limits assumed): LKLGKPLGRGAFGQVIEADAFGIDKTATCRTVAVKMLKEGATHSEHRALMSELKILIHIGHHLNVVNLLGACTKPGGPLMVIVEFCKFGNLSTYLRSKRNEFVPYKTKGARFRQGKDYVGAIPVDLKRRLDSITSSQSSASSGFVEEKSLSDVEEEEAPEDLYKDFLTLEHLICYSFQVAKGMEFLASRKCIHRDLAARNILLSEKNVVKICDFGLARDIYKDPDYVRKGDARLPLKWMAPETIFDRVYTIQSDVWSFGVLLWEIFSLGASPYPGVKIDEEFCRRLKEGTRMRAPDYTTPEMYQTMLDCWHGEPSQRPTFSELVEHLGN
Chain of CDK3/cyclin E (Q00526 4-286 limits assumed): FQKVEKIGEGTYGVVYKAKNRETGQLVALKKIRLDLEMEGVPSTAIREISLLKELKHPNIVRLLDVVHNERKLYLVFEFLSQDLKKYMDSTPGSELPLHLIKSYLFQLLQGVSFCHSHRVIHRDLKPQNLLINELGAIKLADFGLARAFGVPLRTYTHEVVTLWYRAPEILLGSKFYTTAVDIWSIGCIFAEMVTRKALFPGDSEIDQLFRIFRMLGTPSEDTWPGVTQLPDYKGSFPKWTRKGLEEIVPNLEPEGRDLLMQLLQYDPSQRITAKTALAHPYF
Chain of CDK3/cyclin E (P24864 whole entry partner): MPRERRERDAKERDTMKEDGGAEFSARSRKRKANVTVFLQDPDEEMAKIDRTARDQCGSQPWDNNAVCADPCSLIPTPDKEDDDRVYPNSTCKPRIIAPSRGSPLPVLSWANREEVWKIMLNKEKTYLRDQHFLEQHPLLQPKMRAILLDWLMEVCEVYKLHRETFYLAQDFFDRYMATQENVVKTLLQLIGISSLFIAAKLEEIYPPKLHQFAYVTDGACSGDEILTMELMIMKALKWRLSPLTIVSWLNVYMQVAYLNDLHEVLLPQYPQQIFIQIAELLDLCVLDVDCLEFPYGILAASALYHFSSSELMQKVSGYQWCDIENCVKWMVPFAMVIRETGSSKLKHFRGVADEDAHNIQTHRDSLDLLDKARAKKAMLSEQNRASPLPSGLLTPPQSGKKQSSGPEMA
Chain of FGFR1 (P11362 478-767 limits assumed): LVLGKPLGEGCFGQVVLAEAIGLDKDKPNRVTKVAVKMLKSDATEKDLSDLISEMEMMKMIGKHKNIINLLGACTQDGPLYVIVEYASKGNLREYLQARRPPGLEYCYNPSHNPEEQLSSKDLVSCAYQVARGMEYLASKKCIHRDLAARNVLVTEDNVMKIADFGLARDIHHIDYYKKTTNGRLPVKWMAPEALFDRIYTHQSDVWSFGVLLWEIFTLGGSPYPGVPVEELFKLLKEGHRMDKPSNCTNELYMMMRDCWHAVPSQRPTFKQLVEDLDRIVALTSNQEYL
Chain of CDK4/cyclin D1 (P11802 6-295 limits assumed): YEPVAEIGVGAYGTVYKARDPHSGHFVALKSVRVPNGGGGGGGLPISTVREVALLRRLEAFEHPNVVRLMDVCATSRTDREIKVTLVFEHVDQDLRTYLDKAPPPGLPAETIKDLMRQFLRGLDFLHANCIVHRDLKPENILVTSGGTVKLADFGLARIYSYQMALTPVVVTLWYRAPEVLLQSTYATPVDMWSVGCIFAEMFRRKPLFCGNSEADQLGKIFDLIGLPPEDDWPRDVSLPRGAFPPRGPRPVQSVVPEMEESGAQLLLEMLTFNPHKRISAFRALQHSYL
Chain of CDK4/cyclin D1 (P24385 whole entry partner): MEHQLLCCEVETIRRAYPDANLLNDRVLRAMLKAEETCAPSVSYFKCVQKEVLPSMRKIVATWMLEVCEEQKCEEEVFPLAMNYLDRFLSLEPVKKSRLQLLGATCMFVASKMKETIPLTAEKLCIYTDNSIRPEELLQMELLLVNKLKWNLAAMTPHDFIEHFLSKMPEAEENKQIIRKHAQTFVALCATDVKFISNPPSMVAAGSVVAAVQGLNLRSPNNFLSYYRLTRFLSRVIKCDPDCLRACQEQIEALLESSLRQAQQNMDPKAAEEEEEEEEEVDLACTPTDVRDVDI
Chain of CDK1/cyclin B (P06493 4-287 limits assumed): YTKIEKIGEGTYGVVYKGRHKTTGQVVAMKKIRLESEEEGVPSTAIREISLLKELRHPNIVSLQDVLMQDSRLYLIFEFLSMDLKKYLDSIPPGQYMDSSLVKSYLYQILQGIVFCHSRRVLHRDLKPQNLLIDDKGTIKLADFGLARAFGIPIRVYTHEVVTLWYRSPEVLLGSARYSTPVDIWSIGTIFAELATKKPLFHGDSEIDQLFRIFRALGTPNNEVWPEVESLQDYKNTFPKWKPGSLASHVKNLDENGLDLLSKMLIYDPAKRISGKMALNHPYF
Chain of CDK1/cyclin B (P14635 whole entry partner): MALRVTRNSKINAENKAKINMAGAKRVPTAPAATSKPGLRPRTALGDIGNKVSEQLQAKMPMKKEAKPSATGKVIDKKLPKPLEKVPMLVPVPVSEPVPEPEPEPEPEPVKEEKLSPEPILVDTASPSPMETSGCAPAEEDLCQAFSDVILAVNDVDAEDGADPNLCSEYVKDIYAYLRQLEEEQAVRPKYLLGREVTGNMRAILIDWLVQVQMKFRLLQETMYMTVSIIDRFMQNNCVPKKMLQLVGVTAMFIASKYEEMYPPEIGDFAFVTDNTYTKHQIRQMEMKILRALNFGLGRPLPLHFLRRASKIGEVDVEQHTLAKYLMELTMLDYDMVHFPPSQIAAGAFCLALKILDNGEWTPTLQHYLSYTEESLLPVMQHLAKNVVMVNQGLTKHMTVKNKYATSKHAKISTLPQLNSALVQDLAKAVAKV
Chain of CDK1/cyclin E (P06493 4-287 limits assumed): as the sequence (P06493 4-287 limits assumed) above
Chain of CDK1/cyclin E (P24864 whole entry partner): as the sequence (P24864 whole entry partner) above
Chain of JNK2 (P45984 26-321 limits assumed): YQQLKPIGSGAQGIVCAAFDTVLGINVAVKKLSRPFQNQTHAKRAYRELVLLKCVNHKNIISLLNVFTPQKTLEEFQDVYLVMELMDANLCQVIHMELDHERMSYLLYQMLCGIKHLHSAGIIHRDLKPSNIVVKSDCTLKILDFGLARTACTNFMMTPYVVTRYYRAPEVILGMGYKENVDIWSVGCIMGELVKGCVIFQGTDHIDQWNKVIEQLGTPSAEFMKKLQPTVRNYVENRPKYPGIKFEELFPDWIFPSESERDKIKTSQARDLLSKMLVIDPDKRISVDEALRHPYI
Chain of JAK2 (O60674 849-1124 limits assumed): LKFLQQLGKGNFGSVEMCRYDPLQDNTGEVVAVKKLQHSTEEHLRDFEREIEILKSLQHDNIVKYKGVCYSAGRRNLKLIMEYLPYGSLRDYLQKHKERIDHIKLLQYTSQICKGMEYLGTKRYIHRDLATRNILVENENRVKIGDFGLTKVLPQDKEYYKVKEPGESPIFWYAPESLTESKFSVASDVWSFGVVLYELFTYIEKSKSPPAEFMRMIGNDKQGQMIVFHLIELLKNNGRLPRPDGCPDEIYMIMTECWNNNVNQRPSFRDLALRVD
Chain of CDK7/cyclin H (P50613 12-295 limits assumed): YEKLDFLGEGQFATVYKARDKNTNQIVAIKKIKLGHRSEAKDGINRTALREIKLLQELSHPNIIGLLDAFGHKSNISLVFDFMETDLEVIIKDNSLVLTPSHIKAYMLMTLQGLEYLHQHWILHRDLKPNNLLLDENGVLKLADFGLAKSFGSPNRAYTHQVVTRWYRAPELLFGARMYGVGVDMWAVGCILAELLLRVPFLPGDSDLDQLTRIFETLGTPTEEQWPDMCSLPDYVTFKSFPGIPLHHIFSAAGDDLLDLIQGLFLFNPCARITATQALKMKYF
Chain of CDK7/cyclin H (P51946 whole entry partner): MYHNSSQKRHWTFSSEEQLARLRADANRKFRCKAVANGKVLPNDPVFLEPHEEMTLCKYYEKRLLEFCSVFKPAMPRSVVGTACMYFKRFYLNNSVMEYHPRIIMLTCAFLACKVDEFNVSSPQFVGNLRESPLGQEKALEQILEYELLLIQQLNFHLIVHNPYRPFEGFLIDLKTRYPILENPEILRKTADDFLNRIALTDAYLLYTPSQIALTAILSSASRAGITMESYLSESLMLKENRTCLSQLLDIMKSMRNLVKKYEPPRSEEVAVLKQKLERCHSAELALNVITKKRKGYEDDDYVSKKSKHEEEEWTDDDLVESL
Chain of CDK7/cyclin H (P51948 whole entry partner): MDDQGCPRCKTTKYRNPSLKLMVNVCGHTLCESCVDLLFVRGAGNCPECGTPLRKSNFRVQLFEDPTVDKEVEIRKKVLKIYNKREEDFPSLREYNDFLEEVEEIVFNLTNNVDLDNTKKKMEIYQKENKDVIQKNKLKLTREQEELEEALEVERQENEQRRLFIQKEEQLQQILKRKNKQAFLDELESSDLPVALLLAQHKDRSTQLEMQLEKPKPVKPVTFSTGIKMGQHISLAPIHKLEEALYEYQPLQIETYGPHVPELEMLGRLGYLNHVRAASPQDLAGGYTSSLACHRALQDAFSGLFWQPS

Structure (SMILES)	IC50 (CDK5/p35; [1]) [µM]	IC50 (JNK1; [2]) [µM]	IC50 (FGFR1; [3]) [µM]	IC50 (JNK2; [4]) [µM]	IC50 (CDK1/cyclin B; [5]) [µM]	IC50 (FGFR3) [µM]	inhibition at 1 µM (CDK2/A) [%]	IC50 (CDK1/cyclin E; [6]) [µM]	IC50 (FGFR2; [7]) [µM]	IC50 (CDK7/cyclin H; [8]) [µM]	inhibition at 1 µM (Aurora A) [%]	IC50 (JAK2; [9]) [µM]	IC50 (CDK2/cyclin A; [10]) [µM]	IC50 (CDK3/cyclin E; [11]) [µM]	IC50 (CDK1/cyclin A; [12]) [µM]	IC50 (ERK7/MAPK15; [13]) [µM]	IC50 (CDK2/Cyclin A1; [14]) [µM]	IC50 (FLT1/VEGFR1; [15]) [µM]	IC50 (KDR/VEGFR2; [16]) [µM]	IC50 (CDK4/cyclin D1; [17]) [µM]	also measured
CN1CCN(Cc2ccc(NC(=O)c3n[nH]cc3Nc3ncnc4sccc34)cc2)CC1 [Compound I-1, 4-(4-thieno[2,3-d]pyrimidinylamino)-N-(4-((4-methyl-1-piperazinyl)methyl)phenyl)-1H-3-pyrazole carboxamide]	0.015	≥ 1	0.304	≥ 1	0.087	0.807	70.9	0.096	0.233	0.522	67.9	0.795									IC50 (CDK2/cyclin A): 0.015 µM; IC50 (CDK3/cyclin E): 0.19 µM; IC50 (CDK1/cyclin A): 0.157 µM; IC50 (ERK7/MAPK15): 0.007 µM; IC50 (CDK2/Cyclin A1): 0.009 µM; IC50 (FLT1/VEGFR1): 0.02 µM; IC50 (KDR/VEGFR2): 0.035 µM; IC50 (CDK4/cyclin D1): 0.006 µM
O=C(Nc1ccc(CN2CCOCC2)cc1)c1n[nH]cc1Nc1ncnc2sccc12 [Compound I-2, 4-(4-thieno[2,3-d]pyrimidinylamino)-N-(4-((4-morpholinyl)methyl)phenyl)-1H-3-pyrazolecarboxamide]							46.6				52.2										
Cc1cc2c(Nc3c[nH]nc3C(=O)Nc3ccc(CN4CCN(C)CC4)cc3)ncnc2s1 [Compound I-3, 4-(4-(6-methylthieno[2,3-d]pyrimidinyl)amino)-N-(4-((4-methyl-1-piperazinyl)methyl)phenyl)-1H-3-pyrazolecarboxamide]	0.013	1.13	0.274	1.17	0.079	0.723	62.5	0.087	0.21	0.495	75.2	0.716	0.014	0.171	0.142	0.007	0.009	0.019	0.033	0.006	
CN1CCN(Cc2ccc(NC(=O)c3n[nH]cc3Nc3ncnc4[nH]ccc34)cc2)CC1 [Compound I-11, 4-(4-(7H-pyrrolo[2,3-d]pyrimidinyl)amino)-N-(4-((4-methyl-1-piperazinyl)methyl)phenyl)-1H-3-pyrazolecarboxamide]						0.657	67.9				64.3										IC50 (CDK2/cyclin A): 0.013 µM; IC50 (CDK5/p35): 0.012 µM; IC50 (JNK1): 1.24 µM; IC50 (FGFR1): 0.247 µM; IC50 (JNK2): 1.32 µM; IC50 (CDK1/cyclin B): 0.071 µM; IC50 (CDK3/cyclin E): 0.155 µM; IC50 (CDK1/cyclin E): 0.078 µM; IC50 (CDK1/cyclin A): 0.128 µM; IC50 (ERK7/MAPK15): 0.007 µM; IC50 (FGFR2): 0.189 µM; IC50 (CDK7/cyclin H): 0.471 µM; IC50 (CDK2/Cyclin A1): 0.008 µM; IC50 (JAK2): 0.644 µM; IC50 (FLT1/VEGFR1): 0.019 µM; IC50 (KDR/VEGFR2): 0.031 µM; IC50 (CDK4/cyclin D1): 0.006 µM
Cc1cc2c(Nc3c[nH]nc3C(=O)Nc3ccc(CN4CCN(C)CC4)cc3)ncnc2[nH]1 [Compound I-13, 4-(4-(6-methyl-7H-pyrrolo[2,3-d]pyrimidinyl)amino)-N-(4-((4-methyl-1-piperazinyl)methyl)phenyl)-1H-3-pyrazolecarboxamide]	0.015	1.55	0.305	1.65	0.088	0.811	67	0.097	0.234	0.583	60.8	0.795	0.015	0.191	0.158	0.008	0.01	0.023	0.039	0.008	
CN1CCN(Cc2ccc(NC(=O)c3n[nH]cc3Nc3ncnc4occc34)cc2)CC1 [Compound I-21, 4-(4-furo[2,3-d]pyrimidinylamino)-N-(4-((4-methyl-1-piperazinyl)methyl)phenyl)-1H-3-pyrazolecarboxamide]	0.016	1.43	0.335	1.49	0.096	0.89	66	0.106	0.257	0.611	60.8	0.875	0.017	0.21	0.173	0.008	0.011	0.024	0.041	0.007	
Cc1cc2c(Nc3c[nH]nc3C(=O)Nc3ccc(CN4CCN(C)CC4)cc3)nccc2s1 [Compound I-27, 4-(4-(2-methylthieno[3,2-c]pyridyl)amino)-N-(4-((4-methyl-1-piperazinyl)methyl)phenyl)-1H-3-pyrazolecarboxamide]	0.015	1.33	0.316	1.38	0.091	0.841	72.6	0.1	0.242	0.575	67.8	0.826	0.016	0.198	0.164	0.008	0.01	0.022	0.038	0.007	
